Patent US11518764B2, “Substituted heteroaryls as inhibitors of the BCL6 BTB domain protein-protein interaction” (Ontario Institute for Cancer Research (OICR), priority 2018, dated 2022)

Columns and labels:
BCL6 BTB domain = BCL6 BTB domain (Homo sapiens (Human), UniProt P41182); assay: Surface plasmon resonance (SPR) assay; format: binding; conditions: BCL6 BTB domain captured on SA chip, single cycle kinetics
[1] = tested on: BCL6 reporter construct (3xBCL6-TK-Luc) in SuDHL4 cells; assay: Cell-based luciferase assay; conditions: Homo sapiens, SU-DHL-4, 48 h, read-out: Luciferase-Assay EC50, uM), SuDHL4-3xBCL6-TK-Luc cells, two days, high dose 10 uM
Summary of the method: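 SuDHL4 cells stably carrying a 3×BCL6-site TK-promoter firefly luciferase reporter, seeded at 15,000 cells/well, were dosed over a 10-point range (top 10 uM) and grown two days at 37 °C, 5% CO2. Luminescence then read after adding neolite reagent at room temperature.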

Karpas422 cells = assay: Tumor cell growth inhibition assay; format: cell-based; conditions: Homo sapiens, KARPAS-422, 144 h, read-out: Tumor Growth Inhibition in Karpas-422 (IC50, uM), Karpas422 cells, six days, ATPlite
Summary of the method: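 Growth inhibition was measured by ATPlite luminescence after six days of culture at 37° C. in 5% CO2. Karpas422 cells were seeded at 2,000 per well in Alpha-MEM plus 10% FBS. Compounds were given as a 10-point concentration series with a highest dose of 5 uM.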

Structure (SMILES) | Kd (BCL6 BTB domain) | EC50 [1] | IC50 (Karpas422 cells)
C[C@H]1CN(CC(O)CCO)CCN1c1cc(NC(=O)Cn2cc(-c3cc(C(N)=O)c(O)c(F)c3F)c3c(=O)n(C)cnc32)c(Cl)c(F)n1 (stereo partly drawn) [Compound I-459, 5-(7-(2-((3-chloro-6-((2S)-4-(2,4-dihydroxybutyl)-2-methylpiperazin-1-yl)-2-fluoropyridin-4-yl)amino)-2-oxoethyl)-3-methyl-4-oxo-4,7-dihydro-3H-pyrrolo[2,3-d]pyrimidin-5-yl)-3,4-difluoro-2-hydroxybenzamide] | 6.55 nM | 0.945 µM | 1.06 µM
C[C@H]1CN(CC2CCO2)CCN1c1cc(NC(=O)Cn2cc(-c3cc(C(N)=O)c(O)c(F)c3F)c3c(=O)n(C)cnc32)c(Cl)c(F)n1 (stereo partly drawn) [Compound I-460, 5-(7-(2-((3-chloro-2-fluoro-6-((2S)-2-methyl-4-(oxetan-2-ylmethyl)piperazin-1-yl)pyridin-4-yl)amino)-2-oxoethyl)-3-methyl-4-oxo-4,7-dihydro-3H-pyrrolo[2,3-d]pyrimidin-5-yl)-3,4-difluoro-2-hydroxybenzamide] | 9.87 nM | 0.102 µM | 0.223 µM
CO[C@@H](C)CN1CCN(c2cc(NC(=O)Cn3cc(-c4cc(C(N)=O)c(O)c(F)c4F)c4c(=O)n(C)cnc43)c(Cl)c(F)n2)[C@@H](C)C1 [Compound I-462] | 50.3 nM | 0.184 µM | 0.289 µM
C[C@H]1CN(CC(CO)CO)CCN1c1cc(NC(=O)Cn2cc(-c3cc(C(N)=O)c(O)c(F)c3F)c3c(=O)n(C)cnc32)c(Cl)c(F)n1 [Compound I-463, (S)-5-(7-(2-((3-chloro-2-fluoro-6-(4-(3-hydroxy-2-(hydroxymethyl)propyl)-2-methylpiperazin-1-yl)pyridin-4-yl)amino)-2-oxoethyl)-3-methyl-4-oxo-4,7-dihydro-3H-pyrrolo[2,3-d]pyrimidin-5-yl)-3,4-difluoro-2-hydroxybenzamide] | 8.56 nM | 3.53 µM | 1.28 µM
C[C@H]1CN(CCC(F)(F)F)CCN1c1cc(NC(=O)Cn2cc(-c3cc(C(N)=O)c(O)c(F)c3F)c3c(=O)n(C)cnc32)c(Cl)c(F)n1 [Compound I-464] | 83.8 nM | 0.213 µM | 0.421 µM
Cn1cnc2c(c(-c3cc(C(N)=O)c(O)c(F)c3F)cn2CC(=O)Nc2cc(N3C4CCC3CN(CC(F)(F)F)C4)ncc2Cl)c1=O [Compound I-465] | 84.9 nM | 4.47 µM | 1.17 µM
Cn1cnc2c(c(-c3cc(Cl)c(O)c(C(N)=O)c3)cn2CC(=O)Nc2cc(N3C4CCC3CN(CC(F)(F)F)C4)ncc2Cl)c1=O [Compound I-466] | 519 nM | 3.81 µM | 0.773 µM
Cn1cnc2c(c(-c3cc(F)c(O)c(C(N)=O)c3)cn2CC(=O)Nc2cc(N3C4CCC3CN(CC(F)(F)F)C4)ncc2Cl)c1=O [Compound I-467] | 175 nM | 1.23 µM | 0.496 µM
Cn1cnc2c(c(-c3cc(C(N)=O)c(O)c(F)c3F)cn2CC(=O)Nc2cc(N3Cc4ccncc4C3)ncc2Cl)c1=O [Compound I-468] | 23.5 nM | 0.461 µM | 0.417 µM
C[C@H]1CN(CC(F)F)CCN1c1cc(NC(=O)Cn2cc(-c3cc(C(N)=O)c(O)c(F)c3F)c3c(=O)n(C)cnc32)c(Cl)c(F)n1 [Compound I-469] | 35.5 nM | 0.141 µM | 0.153 µM
C[C@H]1COCCN1c1cc(NC(=O)Cn2cc(-c3cc(F)c(O)c(C(N)=O)c3F)c3c(=O)n(C)cnc32)c(Cl)c(F)n1 [Compound I-472] | 55.7 nM | 3.8 µM | 10 µM
Cn1cnc2c(c(-c3cc(Cl)c(O)c(C(N)=O)c3)cn2CC(=O)Nc2cc(N3C[C@H]4CC[C@@H](C3)N4CC(F)(F)F)ncc2Cl)c1=O [Compound I-474] | 35.8 nM | 0.216 µM | 0.237 µM
Cn1cnc2c(c(-c3cc(C(N)=O)c(O)c(F)c3F)cn2CC(=O)Nc2cc(N3C[C@H]4CC[C@@H](C3)N4CC(F)(F)F)ncc2Cl)c1=O [Compound I-475] | 50.5 nM | 0.484 µM | 0.576 µM
Cn1cnc2c(c(-c3cc(F)c(O)c(C(N)=O)c3)cn2CC(=O)Nc2cc(N3C[C@H]4CC[C@@H](C3)N4CC(F)(F)F)ncc2Cl)c1=O [Compound I-476] | 13.7 nM | 0.159 µM | 0.118 µM
CN1CC2CCC(C1)N2c1cc(NC(=O)Cn2cc(-c3cc(F)c(O)c(C(N)=O)c3)c3c(=O)n(C)cnc32)c(Cl)cn1 [Compound I-477] | 10.1 nM | 0.328 µM | 0.272 µM
CN1CCN(c2cc(NC(=O)Cn3cc(-c4cc(F)c(O)c(C(N)=O)c4)c4c(=O)n(CC#Cc5cnn(C)c5)cnc43)c(Cl)cn2)CC1 [Compound I-478] | 4.58 nM | 0.366 µM | 0.182 µM
CN1CCC2(C1)CN(c1cc(NC(=O)Cn3cc(-c4cc(Cl)c(O)c(C(N)=O)c4)c4c(=O)n(C)cnc43)c(Cl)cn1)C2 [Compound I-479] | 16.2 nM | 1.43 µM | 0.778 µM
C[C@H]1CN(C)CCN1c1cc(NC(=O)Cn2cc(-c3cc(F)c(O)c(C(N)=O)c3)c3c(=O)n(CC#Cc4cnn(C)c4)cnc32)c(Cl)cn1 [Compound I-480] | 137 nM | 2.21 µM | 0.704 µM
Cn1cnc2c(c(-c3cc(C(N)=O)c(O)c(F)c3F)cn2CC(=O)Nc2cc(NCCCO)nc(F)c2Cl)c1=O [Compound I-481, 5-(7-(2-((3-chloro-2-fluoro-6-((3-hydroxypropyl)amino)pyridin-4-yl)amino)-2-oxoethyl)-3-methyl-4-oxo-4,7-dihydro-3H-pyrrolo[2,3-d]pyrimidin-5-yl)-3,4-difluoro-2-hydroxybenzamide] | 19.2 nM | 19.4 µM | 10 µM
CN1CC2(CCN(c3cc(NC(=O)Cn4cc(-c5cc(Cl)c(O)c(C(N)=O)c5)c5c(=O)n(C)cnc54)c(Cl)cn3)C2)C1 [Compound I-482] | 34.3 nM | 4.69 µM | 2.32 µM
CN1CC2(CCN(c3cc(NC(=O)Cn4cc(-c5cc(C(N)=O)c(O)c(F)c5F)c5c(=O)n(C)cnc54)c(Cl)cn3)C2)C1 [Compound I-483] | 128 nM | 10 µM | 10 µM
CN1CC2(CCN(c3cc(NC(=O)Cn4cc(-c5cc(F)c(O)c(C(N)=O)c5)c5c(=O)n(C)cnc54)c(Cl)cn3)C2)C1 [Compound I-484] | 40.3 nM | 21.6 µM | 10 µM
CN1CCC2(C1)CN(c1cc(NC(=O)Cn3cc(-c4cc(F)c(O)c(C(N)=O)c4)c4c(=O)n(C)cnc43)c(Cl)cn1)C2 [Compound I-486] | 30 nM | 6.95 µM | 10 µM
C[C@H]1CN(C)C[C@H](C)N1c1cc(NC(=O)Cn2cc(-c3cc(C(N)=O)c(O)c(F)c3F)c3c(=O)n(C)cnc32)c(Cl)c(F)n1 [Compound I-487] | 122 nM | 1.29 µM | 1.8 µM
Cn1cnc2c(c(-c3cc(C(N)=O)c(O)c(F)c3F)cn2CC(=O)Nc2cc(N3CCC3)nc(F)c2Cl)c1=O [Compound I-488] | 71.6 nM | 1.28 µM | 0.417 µM
